Measurements as given in PubChem BioAssay (NCI).
“And” between values parts separate entries of the source, which are not always exact repeats. Identical values can stand only once.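 Briefly, cells in 96-well plates were exposed to five compound concentrations for 48 h, and endpoints were estimated by linear interpolation. Abbreviation: GI50, concentration required for 50% inhibition of growth. TGI marks complete inhibition of growth.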

Tests used:
Assay in all cases: inhibition of tumour cell growth, NCI panel, 48 h
PC-3 prostate = system: PC-3 prostate
MDA-MB-231 breast = system: MDA-MB-231 breast
MDA-MB-435 = system: MDA-MB-435
BT-549 breast = system: BT-549 breast
MCF7 breast = system: MCF7 breast
DMS 273 small cell lung = system: DMS 273 small cell lung
LXFL 529 NSCLC = system: LXFL 529 NSCLC
DMS 114 small cell lung = system: DMS 114 small cell lung

| Structure (SMILES) | GI50 (PC-3 prostate) | TGI (PC-3 prostate) | GI50 (MDA-MB-231 breast) | TGI (MDA-MB-231 breast) [µM] | GI50 (MDA-MB-435) [µM] | TGI (MDA-MB-435) | GI50 (BT-549 breast) [µM] | TGI (BT-549 breast) | GI50 (MCF7 breast) [µM] | TGI (MCF7 breast) [µM] | TGI (DMS 273 small cell lung) [µM] | TGI (LXFL 529 NSCLC) [µM] | TGI (DMS 114 small cell lung) [µM] |
| --- | --- | --- | --- | --- | --- | --- | --- | --- | --- | --- | --- | --- | --- |
| COc1ccc2nc(-c3ccc(Cl)cc3)cc(-c3nnc(SCC(=O)Nc4ccc(/C(C)=N\O)cc4)o3)c2c1 | 1.29 µM | 2.97 µM | 2.05 µM | 8.34 | 1.26 | 4.08 µM | 3.7 | 18.9 µM | – | – | – | – | – |
| COc1ccc(-c2cnc(SCC(=O)c3c(C)n(C)n(-c4ccccc4)c3=O)n2-c2ccc(OC)cc2)cc1 | 40.1 µM | > 50 µM | > 50 µM | > 50 | > 50 | > 50 µM | – | – | 35.3 | > 50 | – | – | – |
| CN(C)C(=O)C(NCCO)c1ccccc1 (centres undefined) | – | > 100 µM | – | > 100 | – | > 100 µM | – | > 100 µM | – | > 100 | – | – | – |
| CC(C)C[C@H](NC(=O)[C@H](Cc1ccccc1)NC(=O)c1cnccn1)B(O)O | 0.0125 µM and 0.00364 µM | 0.197 µM and 0.0952 µM and 0.106 µM | < 0.0118 µM and 0.00177 µM | 0.00541 | 0.000748 | < 0.01 µM and 0.00186 µM | 0.00103 | < 0.0139 µM and 0.00341 µM | 0.0013 | – | – | – | – |
| CN(Cc1ccccc1)c1ncnc2ccc(Br)cc12 | 11.7 µM | 33.4 µM | – | – | 4.67 | 16.6 µM | – | – | 26.4 | > 100 | – | – | – |
| N#Cc1c(N)n(C2OC(CO)C(O)C2O)c2ncnc(N)c12 (centres undefined) | – | 0.578 µM | – | > 8.22 | – | 0.0891 µM | – | 2.13 µM | – | 1.21 | – | – | – |
| COc1ccc(C(=C(C#N)C#N)c2ccc(OC)cc2)cc1 | – | – | – | – | – | – | – | – | – | – | > 100 | > 100 | > 100 |
| C=CC1CC12C(=O)C1OC2(C)C2C(=O)c3c(O)cccc3C(=O)C12 (centres undefined) | 25.7 µM | 81.5 µM | 18.7 µM | 59 | 21 | 45.1 µM | 53.4 | > 100 µM | 23.2 | 74.5 | – | – | – |
| Nc1c(C(=O)c2cccc(C(O)(CO)CO)c2)cnn1-c1ccc(F)cc1 | > 25 µM | > 25 µM | > 25 µM | > 25 | > 25 | > 25 µM | > 25 | > 25 µM | > 25 | > 25 | – | – | – |
| N=C(N)c1ccc(CS(=O)(=O)F)cc1 | > 100 µM | > 100 µM | > 100 µM | > 100 | > 100 | > 100 µM | > 100 | > 100 µM | > 100 | > 100 | – | – | – |
| O=C1c2cccc3c([N+](=O)[O-])ccc(c23)C(=O)N1CCCCl | 7.49 µM | > 10 µM | > 10 µM | > 10 | > 10 | > 10 µM | 4.82 | > 10 µM | 3.03 | > 10 | – | – | – |
| C[C@]12CC/C(=N\O)C[C@@H]1CC[C@@H]1[C@@H]2CC[C@]2(C)/C(=N/O)CC[C@@H]12 | 43.7 µM | > 100 µM | 26 µM | 73.8 | 24.8 | 70.8 µM | – | – | 26.1 | 98.8 | – | – | – |
| O=S1(=O)OCc2ccccc21 | – | > 100 µM | – | > 100 | – | > 100 µM | – | > 100 µM | – | > 100 | – | – | – |
| OCCNC(=S)Nc1ccc(-c2nc(N3C[C@H]4CC[C@@H](C3)O4)c3cccn3n2)cc1 | 0.0284 µM | 8.13 µM | 0.0583 µM | 6.57 | 0.0597 | 2.86 µM | 0.021 | 0.507 µM | 0.0231 | 11.4 | – | – | – |
| COc1ccc(C2CC(c3ccc4ccccc4c3)=NN2/C=C2\SC(=S)N(NC(=O)Cc3ccccc3Nc3c(Cl)cccc3Cl)C2=O)cc1 (centres undefined) | 0.714 µM | > 54 µM | 1.6 µM | > 44.4 | 0.221 | 0.547 µM | 0.681 | > 43 µM | 0.361 | > 50.5 | – | – | – |
| CS(=O)(=O)c1nccc(-c2c(-c3cccc(OCc4ccccc4)c3)nc3sccn23)n1 | 6.35 µM | > 26.8 µM | 16.2 µM | > 100 | 13.3 | > 100 µM | 11.6 | > 100 µM | 7.31 | > 100 | – | – | – |
| COc1cc(/C=C/C(=O)c2ccc(F)cc2)ccc1OCCCCOc1cc2c(cc1OC)C(=O)N1CCCC1C=N2 (centres undefined) | 0.923 µM | 12.8 µM | 1.27 µM | > 21.2 | 2.71 | 8.01 µM | 0.855 | – | 0.318 | 6.12 | – | – | – |
| COc1ccc(C(=O)OC2C(OC3C(O)COC(O[C@H]4C[C@H]5[C@@H]6CC=C7C[C@@H](O)CC[C@]7(C)[C@H]6CC[C@]5(C)[C@H]4[C@H](C)C(=O)CCC(C)C)C3OC(=O)C(C)C)OCC(O)C2O)cc1 (some centres undefined) | 0.00821 µM | 0.446 µM | 0.101 µM | 4.65 | 0.0154 | 0.216 µM | < 0.00275 | 3.26 µM | 0.0136 | 2.99 | – | – | – |
| NNC(=O)C(O)C(O)C(O)CO (centres undefined) | – | > 100 µM | – | > 100 | – | > 100 µM | – | > 100 µM | – | > 100 | – | – | – |
| O=C1C2=C(C(=O)c3c(O)ccc(O)c31)N(c1cccnc1)Cc1ccccc1O2 | 0.653 µM | 2.03 µM | 0.265 µM | 0.876 | 0.398 | 1.15 µM | 0.392 | 1.24 µM | 0.191 | 0.912 | – | – | – |
| CC1=CC[C@@H]2[C@@H](CC[C@@]2(C)O)C(C)(C)[C@H]1CC[C@@H]1[C@@]2(C)CC[C@@H](O)C(C)(C)O[C@@H]2CC[C@]1(C)O | – | > 100 µM | – | 34.5 | – | 57 µM | – | 44 µM | – | > 100 | – | – | – |
| CC/C=C\C[C@H](O)C/C=C1/C(=O)C=C[C@@H]1C/C=C\CCCC(=O)OCCS(=O)(=O)c1ccccc1 | 3.83 µM | 10.9 µM | 5.34 µM | 20.7 | 2.51 | 8.26 µM | – | – | 2.39 | 18.6 | – | – | – |
| C=C(C)[C@@H]1CC[C@]2(C(=O)N3CCN(C)CC3)CC[C@]3(C)[C@H](CC[C@@H]4[C@@]5(C)C/C(=C/c6ccncc6)[C@H](O)C(C)(C)[C@@H]5CC[C@]43C)[C@@H]12 | 2.75 µM | 16.7 µM | 4.46 µM | 19.3 | 8.29 | 33.9 µM | 4.33 | 24.7 µM | 3.29 | 13.8 | – | – | – |
